Patent US11311609B2, “Regulating chimeric antigen receptors” (DANA-FARBER CANCER INSTITUTE, INC., priority 2017, dated 2022)

What was measured:
[1] = test system: SMART-CAR; assay: SMART-CAR expression in Jurkat T-cells by flow cytometry with HA-antibody; assay type: cell-based, human; settings: 4 hour pretreatment 250 nM, wash, retreatment with 250 nM dFKBP7; 1:1 co-culture
Description: FIG. 27 is a histogram plot illustrating the ability to track SMART-CAR expression in Jurkat cells. SMART-CAR expressing Jurkat cells were stained with a HA-antibody and subsequently labelled with a secondary Alexa647 fluorescent antibody. Stained cells were subject to flow cytometry with excitation with a 647 nm laser and HA expression quantified via Alexa647 fluorescent signal (Example 24). The observed shift in signal illustrates the ability to track SMART-CAR expression in Jurkat T cells.
FIG. 31 are line plots tracking CD19 positive tumor cells and SMART-CAR expression levels as described in the experimental setup in FIG. 20 and described in Example 26. After the 4 hour pretreatment with 250 nM of dFKBP7, SMART-CAR expressing Jurkats were mixed in a 1:1 ratio with CD19 positive tumor cells (Daudi: top and Raji: bottom) in the presence (green line) or absence (blue line) of 250 nM of dFKBP7. […]
FIG. 27 illustrates the use of flow cytometry to monitor SMART-CAR protein expression in Jurkat T-cells. […] This allows for quantitative measurements of SMART-CAR protein expression levels.
(§1) SMART-CAR expressing Jurkat cells were pretreated with dFKBP7 at 250 nM for 4 hours to allow for maximal degradation of SMART-CAR. […] The two experimental arms were then mixed at a 1:1 ratio with CD19 positive tumor cells and CD19-positive tumor cells monitored by flow cytometry. […]

[2] = test system: CD19 positive tumor cells (Daudi, Raji); assay: Co-culture depletion of CD19 positive tumor cells by SMART-CAR expressing Jurkat T-cells, flow cytometry with CD19-FITC antibody; assay type: cell-based
Description: FIG. 28 is a schematic depicting the experimental setup used in FIG. 18 to evaluate the ability of SMART-CAR expressing Jurkat cells to deplete CD19-positive tumor cells. SMART-CAR expressing Jurkat cells are incubated with CD19-positive target tumor cells at the indicated ratio for a given amount of time (Example 25). CD19-positive target tumor cell depletion can be monitored by measuring levels of CD19.
FIG. 30 is a schematic depicting the experimental setup used in FIG. 21 and described in Example 26 to illustrate the chemical control of SMART-CAR expression and subsequent activity against CD19 positive tumor cells using dFKBP7. SMART-CAR expressing Jurkat cells were pretreated with dFKBP7 at 250 nM for 4 hours to allow for maximal degradation of SMART-CAR. The Jurkat cells were then harvested and washed three times to remove dFKBP7. Jurkat cells were split into two experimental arms. The first arm (top, blue) was treated with DMSO control and the second arm (bottom, green) was retreated with 250 nM dFKBP7. The two experimental arms were then mixed at a 1:1 ratio with CD19 positive tumor cells and CD19-positive tumor cells monitored by flow cytometry.
FIG. 33 is a line plot tracking CD19 positive tumor cells during alternating exposure and removal of 250 nM of dFKBP7 in a 30 hour time course. […]
FIG. 28 illustrates the experimental design to evaluate the functionality of SMART-CAR expressing Jurkat T-cells to deplete CD19 positive target tumor cells. […] Co-cultured cells were pelleted, stained with a CD19-FITC antibody, fixed, and CD19 levels measured via flow cytometry.
as §1
FIG. 32 is a graph that exemplifies the linear relationship between number of SMART-CAR expressing T-cells and functional killing of CD19 positive target tumor cells. […] CD19 positive tumor cells were then quantified using flow cytometry with a directly conjugated CD19-FITC antibody. […]

CC[C@H](C(=O)N1CCCC[C@H]1C(=O)O[C@H](CCc1ccc(OC)c(OC)c1)c1cccc(OCC(=O)NCCCOCCOCCOCCCNC(=O)COc2cccc3c2C(=O)N(C2CCC(=O)NC2=O)C3=O)c1)c1cc(OC)c(OC)c(OC)c1 (some centres unmarked) [dFKBP7]
SMART-CAR expression [1]: minimal | CD19 positive target tumor cell depletion in the presence of dFKBP7 ([2]; 1:3 ratio, 250 nM, 4 HR to 24 HR): halted | CD19 positive target tumor cell depletion after removal of dFKBP7 ([2]; 1:3 ratio, 24 HR-30 HR): rapid target tumor cell depletion | Daudi cell depletion, dose response ([2]; CD19 positive Daudi cells, 1:3 ratio, 24 hours, indicated concentrations): Daudi cell depletion was rescued | CD19 positive tumor cells ([2]; Daudi and Raji, 1:1 ratio, retreatment with 250 nM dFKBP7): not affected
